Experiments:
hCA IX = hCA IX (Homo sapiens, UniProt Q16790); experiment: stopped-flow CO2 hydrase assay, hCA IX
Method: (§1) The newly synthesized 1,2,3-triazole linked triazino[5,6-b]indole-benzene sulfonamide hybrids (6a–6o) were evaluated for their carbonic anhydrase inhibitory activity against a panel of carbonic anhydrases, i.e., hCA I, hCA II, hCA IX, and hCA XIII, by the stopped-flow CO2 hydrase assay method. Highly purified CA isoforms were employed, for which the kinetic parameters for the physiologic reaction (CO2 hydration) were measured (see the Experimental section for details), monitoring the color change produced by the formation of H^+ ions (and bicarbonate). […] All the newly synthesized analogs were evaluated in vitro for their inhibitory activity against a panel of recombinant CA isoforms, i.e., hCA I, hCA II, hCA IX, and hCA XIII, obtained inhouse, using the stopped-flow CO2 hydrase assay.
(§2) An SX.18 V-R Applied Photophysics (Oxford, UK) stopped-flow instrument was used to assay the catalytic inhibition of various CA enzymes [32]. […] IC50-s values were calculated from the enzyme activity (as kcat, see Table 2) with respect to the inhibitor concentration.

hCA I = hCA I (Homo sapiens, UniProt P00915); experiment: stopped-flow CO2 hydrase assay, hCA I
Method: as §1, §2

hCA XIII = hCA XIII (Homo sapiens, UniProt Q8N1Q1); experiment: stopped-flow CO2 hydrase assay, hCA XIII
Method: as §1, §2

hCA II = hCA II (Homo sapiens, UniProt P00918); experiment: stopped-flow CO2 hydrase assay, hCA II
Method: as §1, §2

Sequence of hCA XIII (Q8N1Q1 whole entry): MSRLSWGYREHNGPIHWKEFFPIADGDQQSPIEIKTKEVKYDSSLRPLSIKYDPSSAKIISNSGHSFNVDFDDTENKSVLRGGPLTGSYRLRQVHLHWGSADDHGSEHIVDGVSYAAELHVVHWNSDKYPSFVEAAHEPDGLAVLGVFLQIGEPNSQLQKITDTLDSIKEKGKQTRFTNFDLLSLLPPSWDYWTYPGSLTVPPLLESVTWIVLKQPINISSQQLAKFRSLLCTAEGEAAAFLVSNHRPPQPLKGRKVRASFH
Sequence of hCA I (P00915 whole entry): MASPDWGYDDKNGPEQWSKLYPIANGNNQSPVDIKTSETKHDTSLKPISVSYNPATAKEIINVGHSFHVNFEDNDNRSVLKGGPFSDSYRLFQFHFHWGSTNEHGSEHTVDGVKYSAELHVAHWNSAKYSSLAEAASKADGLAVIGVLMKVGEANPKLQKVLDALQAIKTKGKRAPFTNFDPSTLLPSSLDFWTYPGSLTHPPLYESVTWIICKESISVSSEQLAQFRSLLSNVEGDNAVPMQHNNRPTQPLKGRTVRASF

Row | SMILES | Ki (hCA IX) [nM] | melting point [°C] | Ki (hCA I) [nM] | Ki (hCA XIII) [nM] | Ki (hCA II) [nM]
1 | Cn1c2ccccc2c2nnc(SCc3cn(-c4ccc(S(N)(=O)=O)cc4)nn3)nc21 [Compound 6a] | 286 | 235 to 240 | 910 | 77.8 | 65.5
2 | C=CCn1c2ccccc2c2nnc(SCc3cn(-c4ccc(S(N)(=O)=O)cc4)nn3)nc21 [Compound 6e] | 41.1 | 230 to 232 | 536 | 627 | 41.7
3 | CCCn1c2ccccc2c2nnc(SCc3cn(-c4ccc(S(N)(=O)=O)cc4)nn3)nc21 [Compound 6c] | 219 | 261 to 263 | 3960 | 365 | 88.7
4 | C=CCn1c2ccc(Cl)cc2c2nnc(SCc3cn(-c4ccc(S(N)(=O)=O)cc4)nn3)nc21 [Compound 6o] | 325 | 261 to 264 | 694 | 2300 | 97.1
5 | Cn1c2ccc(F)cc2c2nnc(SCc3cn(-c4ccc(S(N)(=O)=O)cc4)nn3)nc21 [Compound 6f] | 41.3 | 244 to 246 | 766 | 835 | 59.6
6 | C=CCn1c2ccc(F)cc2c2nnc(SCc3cn(-c4ccc(S(N)(=O)=O)cc4)nn3)nc21 [Compound 6j] | 402 | 245 to 247 | 4590 | 794 | 73.7
7 | CCCn1c2ccc(F)cc2c2nnc(SCc3cn(-c4ccc(S(N)(=O)=O)cc4)nn3)nc21 [Compound 6h] | 119 | 240 to 242 | 764 | 1810 | 683
8 | CCn1c2ccc(F)cc2c2nnc(SCc3cn(-c4ccc(S(N)(=O)=O)cc4)nn3)nc21 [Compound 6g] | 193 | 246 to 248 | 699 | 675 | 63.9
9 | CCCn1c2ccc(Cl)cc2c2nnc(SCc3cn(-c4ccc(S(N)(=O)=O)cc4)nn3)nc21 [Compound 6m] | 204 | 257 to 262 | 6510 | 824 | 61.7
10 | CCn1c2ccccc2c2nnc(SCc3cn(-c4ccc(S(N)(=O)=O)cc4)nn3)nc21 [Compound 6b] | 172 | 202 to 204 | 642 | 69.8 | 72

Next, values leading:

Row | Ki (hCA IX) [nM] | melting point [°C] | Ki (hCA I) [nM] | Ki (hCA XIII) [nM] | Ki (hCA II) [nM] | SMILES
11 | 321 | 263 to 265 | 572 | 91.3 | 179 | CC(C)n1c2ccc(Cl)cc2c2nnc(SCc3cn(-c4ccc(S(N)(=O)=O)cc4)nn3)nc21 [Compound 6n]
12 | 150 | 252 to 256 | 2840 | 3980 | 185 | CCn1c2ccc(Cl)cc2c2nnc(SCc3cn(-c4ccc(S(N)(=O)=O)cc4)nn3)nc21 [Compound 6l]
13 | 331 | 243 to 248 | 5140 | 867 | 253 | Cn1c2ccc(Cl)cc2c2nnc(SCc3cn(-c4ccc(S(N)(=O)=O)cc4)nn3)nc21 [Compound 6k]
14 | 37.8 | 213 to 215 | 315 | 65.8 | 20.9 | CC(C)n1c2ccccc2c2nnc(SCc3cn(-c4ccc(S(N)(=O)=O)cc4)nn3)nc21 [Compound 6d]
15 | 34.9 | 235 to 237 | 379 | 736 | 7.7 | CC(C)n1c2ccc(F)cc2c2nnc(SCc3cn(-c4ccc(S(N)(=O)=O)cc4)nn3)nc21 [Compound 6i]
